# Test results taken from patent EP0256532B1, “Use of dihydrobenzopyrane derivatives” (F. HOFFMANN-LA ROCHE AG, priority 1986, dated 1988).
# Marks after values point to notes of the source that are not given here.
# Assays:
# [1] = tested on: Antibiotika-induzierte Kolitis in Hamstern; assay: Antibiotic (clindamycin)-induced colitis in hamsters, in vivo; set-up: species or system syrischen Hamstern (LUG)
# Experimental: Man verabreicht männlichen, 80-120 g schweren syrischen Hamstern (LUG) eine einmalige Dosis von 175 mg/kg Clindamycin-phosphat oder Clindamycin-hydrochlorid intraperitoneal, um eine Kolitis zu induzieren. Ungefähr 7 Stunden nach dieser Injektion verabreicht man den Tieren die zu testende Verbindung oral oder intraperitoneal. Während einer Periode von 4 weiteren Tagen wird diese Therapie zweimal täglich wiederholt. Für die orale Verabreichung wurde die zu testende Verbindung in Wasser suspendiert oder in Dimethylsulfoxid gelöst und mittels einer Magensonde verabreicht. Der Effekt der Therapie wurde durch das sogenannte "Hazard"-Verhältnis bestimmt. Es handelt sich dabei um das Verhältnis der Sterblichkeitsrate von Tieren, welche mit der zu testenden Verbindung behandelt worden sind, im Vergleich zu den Tieren, welche nur mit Vehikel behandelt worden sind. Die Sterblichkeitsrate wurde zweimal täglich bestimmt und wurde durch Vergleich der Ueberlebenskurven für jede Gruppe ausgewertet. Für jede Gruppe von Versuchstieren wurde die Kaplan-Meier-Schätzung der Ueberlebenskurve berechnet, und es wurde der Mantel-Cox-Test verwendet, um die Ueberlebenskurve der mit Inhibitor behandelten Gruppe mit derjenigen der nur mit Vehikel behandelten Gruppe zu vergleichen. Ein Hazard-Verhältnis von 1,0 bedeutet, dass der Effekt der Therapie nicht besser ist, als derjenige der mit dem Vehikel allein erzielt wird, währenddem ein Hazard-Verhältnis (>1.0) bedeutet, das die Therapie die Ueberlebensrate im Vergleich zu derjenigen Gruppe, welche nur mit dem Vehikel behandelt worden ist, verbessert.
# [2] = tested on: Essigsäure-induzierte Colitis in Ratten; assay: Acetic acid-induced colitis in rats, in vivo (myeloperoxidase in colon mucosa); set-up: species or system Ratten (Sprague-Dawley)
# Excerpt: Der Essigsäure-induzierte-Colitis-Bioassay an Ratten ist durch J.E. Krawisz et al. in Amer. J. Proc. Gastro. Col. Rec. Surg. 31, 11-18 (1980) und P. Sharon und W.F. Stenson in Gastroenterology 88, 55-63 (1985) und 86, 453-460 (1984) beschrieben worden. Die Essigsäure-induzierte Colitis ist durch eine Wanderung von Entzündungszellen in das Kolon charakterisiert. Die Anzahl derartiger Zellen in der Mucosa kann bestimmt werden, indem man die Aktivität der Myeloperoxidase, einem Marker-Enzym für diese Zellen, misst. Eine positive gewünschte Wirkung zeigt sich in einer Reduktion des hohen Myeloperoxidase-Spiegels, der durch die Essigsäure verursacht wird. Männliche, 150-300 g schwere Ratten (Sprague-Dawley) werden während 2 Tagen, zweimal täglich entweder mit dem Vehikel (Wasser oder Dimethylsulfoxid) oder der im Wasser suspendierten oder in Dimethylsulfoxid gelösten Testsubstanz oral vorbehandelt. Am 3. Tag behandelt man die Tiere noch einmal wie an den beiden Vortagen, anästhetisiert mit Metofan, injiziert 2 ml 2,5-proz. Essigsäure mittels einer Spritze in das Lumen des Kolons und unmittelbar danach 3 ml Luft und eine Spüllösung, bestehend aus 3 ml Phosphat-gepufferter Kochsalzlösung, […] genügend lange im Lumen, um eine Entzündung zu induzieren, ohne jedoch schwere Nekrose oder irreversible Schäden zu bewirken). […]
# LTB₄ = assay: Rat colon mucosa in vitro (Ussing short-circuit technique), LTB₄-induced electrolyte secretion; assay type: cell-based, Ratte; conditions: 6 animals
# Excerpt: (§1) Das Bioassay-System des Versuches mit der Mucosa des Rattenkolons basiert auf der Messung der durch Absorption oder Sekretion bewirkten Aenderungen im Salztransport durch das tierische Gewebe, wobei man die durch Ussing et al. beschriebene Standard-Kurzschluss-Technik verwendet, Acta Physiol. Scand. 23, 110-127 (1951). Diarrhö ist das häufigste Symptom bei gastrointestinalen Entzündungen und tritt bei allen Typen der Enteritis auf. Pantera, et al., Ital. J. Gastroenterol. 13: 24-27 (1981); Sales, et al., Arch. Int. Med. 143: 294-299 (1983); Hodgson, Br. J. Clin. Pharmac. 14: 159-270 (1982). Diarrhö wird durch eine Abnahme in der Salzabsorption oder eine Zunahme in der Salzsekretion im Darm bewirkt und kann durch die oben erwähnte Methode von Ussing et al. in vitro quantifiziert werden. Man entfernt von 200-250 g schweren Tieren ein 1 cm langes Segment des Kolons, behandelt dieses in vitro mit Leukotrienen oder Bradykinin, welche die Salzsekretion fördern, und misst die erhaltene Aenderung im Netto-Salztransport, welche in Gegenwart und in Abwesenheit von 6-Acetyl-7-[5-(4-acetyl-3-hydroxy-2-propylphenoxy)pentyloxy] -3,4-dihydro-2H-1-benzopyran-2-carbonsäure als Hemmer erhalten wird. Gewebeproben werden paarweise in Ussing-Kammern befestigt und mit automatischen Spannungsklemmen (von der University of Iowa Bioengineering Department) kurzgeschlossen. […]
# LTC₄ = assay: Rat colon mucosa in vitro (Ussing short-circuit technique), LTC₄-induced electrolyte secretion; assay type: cell-based, Ratte; conditions: 6 animals
# Excerpt: as §1
# LTD₄ = assay: Rat colon mucosa in vitro (Ussing short-circuit technique), LTD₄-induced electrolyte secretion; assay type: cell-based, Ratte; conditions: 6 animals
# Excerpt: as §1
# LTE₄ = assay: Rat colon mucosa in vitro (Ussing short-circuit technique), LTE₄-induced electrolyte secretion; assay type: cell-based, Ratte; conditions: 6 animals
# Excerpt: as §1
# Bradykinin = assay: Rat colon mucosa in vitro (Ussing short-circuit technique), bradykinin-induced secretion; assay type: cell-based, Ratte; conditions: Figur 1; result in words
# Excerpt: as §1
# [3] = tested on: Carrageenin-induzierte Colitis in Meerschweinchen; assay: Carrageenin-induced colitis in guinea pigs, in vivo (water transport in distal colon); set-up: species or system Meerschweinchen (Hartley); conditions: 10 bzw. 30 mg/kg oral; Figur 5
# Excerpt: Der Carrageenin-induzierte-Colitis-Bioassay an Meerschweinchen ist durch A. B. Onderdonk in Inflammatory Bowel Diseases, Martinus Nijhoff Publ., Boston, Massachusetts, Seiten 126-134 (1982) und in Human Intestinal Microflora in Health and Disease (D. J. Hentger. ed), Academic Press, New York, 1983, Seiten 447-479 beschrieben worden. Das aus Rotalgen herstammende Polysaccharid Jotacarrageenin bewirkt in Meerschweinchen eine Colitis, welche der ulcerativen Colitis im Menschen ähnlich ist. Männliche und weibliche, 400-650 g Meerschweinchen (Hartley) erhielten via Trinkwasser täglich eine 3-proz. Lösung von abgebautem Carrageenin. Nach etwa 7 Tagen begannen die Versuchstiere eine Diarrhö zu entwickeln, nahmen an Gewicht nicht mehr zu und wurden lethargisch. Nachdem die Versuchstiere während 14 Tagen auf diese Weise Carrageenin verabreicht erhielten, wurde die Diarrhö quantifiziert, und zwar durch Messung des Wassertransportes in den distalen Teil des Kolons durch einfache Pass-Perfusion unter Verwendung von 14C-Polyäthylenglykol 4000 (PEG 4000) als Marker. Kontrolltiere erhielten eine wässrige Trinklösung, enthaltend 3-proz. mannitol anstelle des Carrageenins. Gleichzeitig wurden zufällig ausgewählte Versuchstiere aus diesen beiden Gruppen zweimal täglich mit der Testsubstanz oral behandelt.
# [4] = 10 mg/kg intraperitoneal in 0,075 ml PEG-400, twice daily, >1.0 = survival better than vehicle
# [5] = 10 mg/kg oral in 0,15 ml Wasser, twice daily
# [6] = Inhibitor Konzentration 1 Mikromol
# [7] = Inhibitor Konzentration 10 Mikromol
molecule,measurement,setting,value
"CCCc1c(OCC(O)COc2ccc3c(=O)cc(C(=O)O)oc3c2CCC)ccc(C(C)=O)c1O (stereo not drawn) [Vergleichssubstanz 1, 7-[-3-(4-Acetyl-3-hydroxy-2-propyl-phenoxy)-2-hydroxypropoxy] -4-oxo-8-propyl-4H-1-benzopyran-2-carbonsäure, reference compound]",Hazardverhältnis,[1]; [4],"2,02^c"
same,Hazardverhältnis,[1]; [5],"1,42"
same,Activity against antibiotic-induced colitis,[1]; oral 10 mg/kg,inaktive
"6-Acetyl-7-[5-(4-acetyl-3-hydroxy-2-propylphenoxy)pentyloxy]-3,4-dihydro-2H-1-benzopyran-2-carbonsäure-hexylesters",Hazardverhältnis,[1]; 20 µMol/kg oral (Tabelle 3),"1,64"
"O=C1CCN(c2ccccc2)N1 [Phenidon, reference compound]",Activity (reduction of myeloperoxidase level caused by acetic acid),"[2]; oral 100 und 200 mg/kg, Figur 2",aktiv
"CCCc1c(OCCCOc2ccc3c(=O)cc(CCCC(=O)O)oc3c2CCC)ccc(C(C)=O)c1O [Vergleichssubstanz 2, 7-[3-(4-Acetyl-3-hydroxy-2-propylphenoxy)propoxy]-4-oxo-8-propyl-4H-1-benzopryran-2-propancarbonsäure, reference compound]",Hazardverhältnis,"[1]; 13 mg/kg oral in 0,15 ml Wasser, twice daily","1,68"
same,Activity against antibiotic-induced colitis,[1]; oral 10 mg/kg,inaktive
"CCCc1c(OCCCCCOc2cc3c(cc2C(C)=O)CCC(C(=O)O)O3)ccc(C(C)=O)c1O (racemic) [6-Acetyl-7-[5-(4-acetyl-3-hydroxy-2-propylphenoxy)pentyloxy] -3,4-dihydro-2H-1-benzopyran-2-carbonsäure]",% Inhibition gegen Leukotriene LTB₄,LTB₄; [6],"44,4±13,1%"
same,% Inhibition gegen Leukotriene LTB₄,LTB₄; [7],"69,6±11,9%"
same,% Inhibition gegen Leukotriene LTC₄,LTC₄; [6],"9,5±19,2%"
same,% Inhibition gegen Leukotriene LTC₄,LTC₄; [7],"57,1+19,7%"
same,% Inhibition gegen Leukotriene LTD₄,LTD₄; [6],"30,8±15,4%"
same,% Inhibition gegen Leukotriene LTD₄,LTD₄; [7],"62,4±10,0%"
same,% Inhibition gegen Leukotriene LTE₄,LTE₄; Inhibitor Konzentration 1 Mikromol (µM),"29,8±15,0%"
same,% Inhibition gegen Leukotriene LTE₄,LTE₄; Inhibitor Konzentration 10 Mikromol (µM),"44,2± 9,8%"
same,sekretorische Aktivität von Bradykinin,Bradykinin,reduzieren
same,Hazardverhältnis,[1]; [4],"2,87"
same,Hazardverhältnis,[1]; [5],"3,80"
same,Hazardverhältnis,"[1]; 60 mg/kg intraperitoneal in 0,075 ml PEG-400, twice daily","4,77"
same,Hazardverhältnis,"[1]; 60 mg/kg oral in 0,15 ml Wasser, twice daily","12,0"
same,Hazardverhältnis,"[1]; 100 mg/kg oral in 0,15 ml Wasser, twice daily","64,2"
same,Hazardverhältnis,[1]; 20 µMol/kg oral (Tabelle 3),"1,45"
same,"Histopathological effects on cecum and colon (oedema, bleeding, necrosis, erosions, inflammatory cell infiltration)","[1]; 60 oder 100 mg/kg, in most cases",reduziert oder gänzlich zum Verschwinden gebracht
same,Activity against antibiotic-induced colitis,[1]; oral doses 10 bis 100 mg/kg,aktiv
same,Diarrhö,[1]; result in words,reduzierte
same,Histopathologie des Cecums und des Kolons,[1]; result in words,verbesserte in einem beträchtlichen Ausmass
same,Ueberlebensrate der mit Clidamycin behandelten Tiere,[1]; result in words,erhöht
same,Activity (reduction of myeloperoxidase level caused by acetic acid),"[2]; oral 30 und 90 mg/kg, Figur 3",aktiv
same,Wassertransport-Raten,[3],"praktisch gleich waren, wie diejenigen der Kontroll-Versuchstiere"
"CCCc1c(OCCCCCOc2cc3c(cc2C(C)=O)CCC(C(=O)OC)O3)ccc(C(C)=O)c1O (racemic) [6-Acetyl-7-[5-(4-acetyl-3-hydroxy-2-propylphenoxy)pentyloxy]-3,4-dihydro-2H-1-benzopyran-2-carbonsäure-methylester]",Hazardverhältnis,[1]; 20 µMol/kg oral (Tabelle 3),"3,42"
